Test results as given in ChEMBL document CHEMBL4145634, “Discovery of Janus Kinase 2 (JAK2) and Histone Deacetylase (HDAC) Dual Inhibitors as a Novel Strategy for the Combinational Treatment of Leukemia and Invasive Fungal Infections” (J Med Chem, 2018).
Values after ≈ are worked out from the molar mass of the structure shown. Active and inactive are the calls of the source. No cut-off for these calls is given here.

Assays:
Candida albicans [1] = test: microbe, parasite or virus in culture; format: functional; details: Candida albicans, 0304103, 48 h
Description: Antifungal activity against FLC resistant Candida albicans 0304103 after 48 hrs by checkerboard microdilution method

Candida albicans [2] = test: Antifungal activity against FLC resistant Candida albicans 100 after 48 hrs by checkerboard microdilution method; format: functional; details: Candida albicans, 100, 48 h
Candida albicans [3] = test: microbe, parasite or virus in culture; format: functional; details: Candida albicans, 0710922, 48 h
Description: Antifungal activity against FLC resistant Candida albicans 0710922 after 48 hrs by checkerboard microdilution method

Candida albicans [4] = test: Antifungal activity against FLC resistant Candida albicans 0304103 at 1 ug/ml up to 24 hrs by checkerboard microdilution method; format: functional, organism-based
Mus musculus [5] = test: In vivo antifungal activity against FLC resistant Candida albicans 0304103 infected in ICR mouse assessed as mouse survival at 1 mg/kg, ip qd up to 20 days (reference value: 4.5 day); format: functional
HL-60 [6] = test: Antiproliferative activity against human HL60 cells after 48 hrs by CCK-8 assay; format: functional, cell-based; details: HL-60, 48 h
K562 [7] = test: Antiproliferative activity against human K562 cells after 48 hrs by CCK-8 assay; format: functional, cell-based; details: K562, 48 h
HEL [8] = test: Antiproliferative activity against human HEL cells after 48 hrs by CCK-8 assay; format: functional, cell-based
HEL [9] = test: Induction of apoptosis in human HEL cells at 10 uM after 48 hrs by Annexin-V-FITC/propidium iodide staining based flow cytometry relative to control; format: functional
Candida albicans [10] = test: microbe, parasite or virus in culture; format: functional; details: Candida albicans, 0304103, 48 h; remark: listed apart in the source
Description: Antifungal activity against FLC resistant Candida albicans 0304103 assessed as fluconazol MIC50 after 48 hrs by checkerboard microdilution method

Candida albicans [11] = test: microbe, parasite or virus in culture; format: functional; details: Candida albicans, 0304103, 48 h; remark: listed apart in the source
Description: Antifungal activity against FLC resistant Candida albicans 0304103 after 48 hrs in presence of fluconazol by checkerboard microdilution method

Candida albicans [12] = test: microbe, parasite or virus in culture; format: functional; details: Candida albicans, 100, 48 h
Description: Antifungal activity against FLC resistant Candida albicans 100 assessed as fluconazol MIC50 after 48 hrs by checkerboard microdilution method

Candida albicans [13] = test: Antifungal activity against FLC resistant Candida albicans 100 after 48 hrs in presence of fluconazol by checkerboard microdilution method; format: functional; details: Candida albicans, 100, 48 h
Candida albicans [14] = test: microbe, parasite or virus in culture; format: functional; details: Candida albicans, 0710922, 48 h; remark: listed apart in the source
Description: Antifungal activity against FLC resistant Candida albicans 0710922 assessed as fluconazol MIC50 after 48 hrs by checkerboard microdilution method

Candida albicans [15] = test: microbe, parasite or virus in culture; format: functional; details: Candida albicans, 0710922, 48 h; remark: listed apart in the source
Description: Antifungal activity against FLC resistant Candida albicans 0710922 after 48 hrs in presence of fluconazol by checkerboard microdilution method

Candida albicans [16] = test: Synergistic antifungal activity against FLC resistant Candida albicans 0304103 assessed as FIC index after 48 hrs by checkerboard microdilution method; format: functional
Candida albicans [17] = test: Synergistic antifungal activity against FLC resistant Candida albicans 100 assessed as FIC index after 48 hrs by checkerboard microdilution method; format: functional
Candida albicans [18] = test: Synergistic antifungal activity against FLC resistant Candida albicans 0710922 assessed as FIC index after 48 hrs by checkerboard microdilution method; format: functional
HEL [19] = test: Antitumor activity against human HEL cells xenografted in BALB/C nude mouse assessed as tumor growth inhibition at 10 mg/kg, ip bid treated for 21 consecutive days relative to control; format: functional; details: read-out: TGI
Mus musculus [20] = test: Toxicity in BALB/C nude mouse xenografted with human HEL cells at 10 mg/kg, ip bid treated for 21 consecutive days; format: organism-based; details: in vivo
Mus musculus [21] = test: Toxicity in BALB/C nude mouse xenografted with human HEL cells assessed as reduction in body weight at 10 mg/kg, ip bid treated for 21 consecutive days; format: organism-based; details: in vivo
Mus musculus [22] = test: Protection against spleen enlargement in SCID mouse xenografted with human HEL cells at 10 mg/kg, ip qd; format: functional, organism-based
HEL [23] = test: Antitumor activity in human HEL cells xenografted in SCID mouse assessed as mouse survival at 10 mg/kg, ip qd measured after 10 days; format: functional, organism-based
Mus musculus [24] = test: In vivo antifungal activity against FLC resistant Candida albicans 0304103 infected in ICR mouse assessed as mouse survival at 5 mg/kg, ip qd up to 20 days in co-treated with 1 mg/kg, ip qd fluconazol (reference value: 4.5 day); format: functional
HEL [25] = test: Antitumor activity against human HEL cells xenografted in BALB/C nude mouse assessed as tumor growth at 10 mg/kg, ip bid treated for 21 consecutive days relative to control; format: functional
HEL [26] = test: Cell cycle arrest in human HEL cells assessed as accumulation at G1 phase at 1 to 5 uM after 48 hrs propidium iodide staining based flow cytometry; format: functional
HL-60 [27] = test: Antiproliferative activity against human HL60 cells after 48 hrs in presence of JAK2 inhibitor CYT-387 by CCK-8 assay; format: functional, cell-based; details: HL-60, 48 h
K562 [28] = test: Antiproliferative activity against human K562 cells after 48 hrs in presence of JAK2 inhibitor CYT-387 by CCK-8 assay; format: functional, cell-based; details: K562, 48 h
HEL [29] = test: Antiproliferative activity against human HEL cells after 48 hrs in presence of JAK2 inhibitor CYT-387 by CCK-8 assay; format: functional, cell-based
HEL [30] = test: Antitumor activity in human HEL cells xenografted in SCID mouse assessed as mouse survival time at 10 mg/kg, ip qd; format: functional
Mus musculus [31] = test: In vivo antifungal activity against FLC resistant Candida albicans 0304103 infected in ICR mouse assessed as mouse survival at 5 mg/kg, ip qd up to 20 days (reference value: 4.5 day); format: functional, organism-based
HEL [32] = test: Cell cycle arrest in human HEL cells assessed as accumulation at G1 phase at 1 to 10 uM after 48 hrs propidium iodide staining based flow cytometry; format: functional

Question: For `OC(Cn1cncn1)(Cn1cncn1)c1ccc(F)cc1F` [FLUCONAZOLE], which MIC50 (Candida albicans [1]) is on record?
Answer: > 64 mg/L

Question: And the MIC50 (Candida albicans [2])?
Answer: > 64 mg/L

Question: What about the MIC50 (Candida albicans [3]) of the same compound?
Answer: > 64 mg/L

Question: What about the Activity (Candida albicans [4]) of the same compound?
Answer: inactive

Question: And the MST (Mus musculus [5])?
Answer: 7.5 days

Question: Which results are given for `N#CCNC(=O)c1ccc(-c2ccnc(Nc3ccc(N4CCOCC4)cc3)n2)cc1` [MOMELOTINIB]?
Answer: IC50 (HL-60 [6]): 8.3 µM; IC50 (K562 [7]): 6.5 µM; IC50 (HEL [8]): 2.3 µM; Activity (HEL [9]): 25.9%; MIC50 (Candida albicans [1]): > 64 mg/L; MIC50 (Candida albicans [10]): > 64 mg/L; MIC50 (Candida albicans [11]): > 64 mg/L; MIC50 (Candida albicans [2]): > 64 mg/L; MIC50 (Candida albicans [12]): > 64 mg/L; MIC50 (Candida albicans [13]): > 64 mg/L; MIC50 (Candida albicans [3]): > 64 mg/L; MIC50 (Candida albicans [14]): 64 mg/L (≈ 154 µM); MIC50 (Candida albicans [15]): 64 mg/L (≈ 154 µM); fractional inhibitory concentration index (FICI) (Candida albicans [16]): >2; fractional inhibitory concentration index (FICI) (Candida albicans [17]): >2; fractional inhibitory concentration index (FICI) (Candida albicans [18]): 2; inhibition in vivo at 10 mg/kg (HEL [19]): 40.2%; Activity (Mus musculus [20]): Non-Toxic; Activity (Mus musculus [21]): Non-Toxic; Activity (Mus musculus [22]): inactive; Activity (HEL [23]): inactive; MST (Mus musculus [24]): 5.5 days; T/C (HEL [25]): 68.3%

Question: Which IC50 (HL-60 [6]) does the source give for `CN1CCc2c(c3ccccc3n2Cc2ccc(C(=O)NO)cc2)C1` [TUBASTATIN A] here?
Answer: 3.75 to 23.9 µM

Question: And the IC50 (K562 [7])?
Answer: 3.75 to 23.9 µM

Question: What about the IC50 (HEL [8]) of the same compound?
Answer: 3.75 to 23.9 µM

Question: And the Activity (HEL [26])?
Answer: Active

Question: And the MIC50 (Candida albicans [1])?
Answer: > 64 mg/L

Question: And the MIC50 (Candida albicans [2])?
Answer: > 64 mg/L

Question: What about the MIC50 (Candida albicans [3]) of the same compound?
Answer: > 64 mg/L

Question: And the IC50 (HL-60 [27])?
Answer: 2.54 to 8.55 µM

Question: And the IC50 (K562 [28])?
Answer: 2.54 to 8.55 µM

Question: What about the IC50 (HEL [29]) of the same compound?
Answer: 2.54 to 8.55 µM

Question: What about the inhibition in vivo at 10 mg/kg (HEL [19]) of the same compound?
Answer: 18.8%

Question: What about the Activity (Mus musculus [22]) of the same compound?
Answer: inactive

Question: And the Activity (HEL [30])?
Answer: inactive

Question: What about the MST (Mus musculus [24]) of the same compound?
Answer: 4.5 days

Question: What about the Activity (Mus musculus [31]) of the same compound?
Answer: inactive

Question: `O=C(CCCCCCNC(=O)c1cnc(N(c2ccccc2)c2ccccc2)nc1)NO` [RICOLINOSTAT] was tested. Which IC50 (HL-60 [6]) did it give?
Answer: 3.75 to 23.9 µM

Question: And the IC50 (K562 [7])?
Answer: 3.75 to 23.9 µM

Question: What about the IC50 (HEL [8]) of the same compound?
Answer: 3.75 to 23.9 µM

Question: What about the Activity (HEL [32]) of the same compound?
Answer: Active

Question: What about the MIC50 (Candida albicans [1]) of the same compound?
Answer: > 64 mg/L

Question: What about the MIC50 (Candida albicans [2]) of the same compound?
Answer: > 64 mg/L

Question: What about the MIC50 (Candida albicans [3]) of the same compound?
Answer: > 64 mg/L

Question: What about the IC50 (HL-60 [27]) of the same compound?
Answer: 2.54 to 8.55 µM

Question: What about the IC50 (K562 [28]) of the same compound?
Answer: 2.54 to 8.55 µM

Question: And the IC50 (HEL [29])?
Answer: 2.54 to 8.55 µM

Question: And the inhibition in vivo at 10 mg/kg (HEL [19])?
Answer: 14.1%

Question: And the Activity (Mus musculus [22])?
Answer: inactive

Question: And the Activity (HEL [30])?
Answer: inactive

Question: And the MST (Mus musculus [24])?
Answer: 5 days

Question: And the Activity (Mus musculus [31])?
Answer: inactive

Question: With `O=C(CCCCCCC(=O)Nc1ccccc1)NO` [VORINOSTAT] as the compound, how does the IC50 (K562 [7]) read?
Answer: 7.7 µM

Question: And the Activity (Mus musculus [20])?
Answer: Non-Toxic

Question: What about the Activity (Mus musculus [21]) of the same compound?
Answer: Non-Toxic

Question: And the Activity (Mus musculus [22])?
Answer: inactive

Question: And the Activity (HEL [23])?
Answer: inactive

Question: What about the MST (Mus musculus [24]) of the same compound?
Answer: 10 days

Question: And the T/C (HEL [25])?
Answer: 87.9%
